From PubChem BioAssay AID248 (DTP/NCI, 2004) come the findings set out here.

This assay concerns L1210 leukemia ip in BDF1 mice, survival T/C. Put plainly: NCI In Vivo Anticancer Drug Screen. Data for tumor model L1210 Leukemia (intraperitoneal) in B6D2F1 (BDF1) mice. Conditions: endpoint: mean survival time, higher = longer survival. The gist of the method: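 Each compound was tested against a transplantable tumor grown in mice. The endpoint was survival, with treated animals benchmarked against vehicle controls as a simple ratio.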

“And” between values parts separate entries of the source, which are not always exact repeats. Identical values can stand only once. Inconclusive results and toxic doses are left out.

As for `Cn1c(CCCC(=O)O)nc2cc(N(CCCl)CCCl)ccc21`, the T/C was 101 % of control (dose: 2.5 mg/kg/injection, schedule: Q01DX001 (ip), vehicle: other); 111 % of control (dose: 2.5 mg/kg/injection, schedule: Q01DX009 (ip), vehicle: other); 106 % of control (dose: 4.37 mg/kg/injection, schedule: Q01DX001 (ip), vehicle: saline); 115 % of control (dose: 4.37 mg/kg/injection, schedule: Q04DX003 (ip), vehicle: saline); 109 % of control (dose: 5.0 mg/kg/injection, schedule: Q01DX001 (ip), vehicle: other); 117 % of control (dose: 5.0 mg/kg/injection, schedule: Q01DX009 (ip), vehicle: Klucel (hydroxypropylcellulose) (HPC)). Moreover, the T/C is, setting by setting: (dose: 5.0 mg/kg/injection, schedule: Q01DX009 (ip), vehicle: other) 117 % of control; (dose: 5.0 mg/kg/injection, schedule: Q04DX003 (ip), vehicle: other) 120 % of control; (dose: 6.6 mg/kg/injection, schedule: Q01DX009 (ip), vehicle: Klucel (hydroxypropylcellulose) (HPC)) 110 % of control; (dose: 8.75 mg/kg/injection, schedule: Q01DX001 (ip), vehicle: saline) 117 % of control; (dose: 8.75 mg/kg/injection, schedule: Q04DX003 (ip), vehicle: saline) 123 % of control; (dose: 10.0 mg/kg/injection, schedule: Q01DX001 (ip), vehicle: other) 111 % of control and 124 % of control. For the same compound, the T/C (dose: 10.0 mg/kg/injection, schedule: Q01DX009 (ip), vehicle: acetone) is 114 % of control; the T/C (dose: 10.0 mg/kg/injection, schedule: Q01DX009 (ip), vehicle: other) was 120 % of control; the T/C (dose: 10.0 mg/kg/injection, schedule: Q04DX003 (ip), vehicle: Klucel (hydroxypropylcellulose) (HPC)) is 117 % of control; the T/C (dose: 10.0 mg/kg/injection, schedule: Q04DX003 (ip), vehicle: other) is 118 % of control; the T/C (dose: 12.5 mg/kg/injection, schedule: Q01DX001 (ip), vehicle: saline) is 116 % of control; the T/C (dose: 17.5 mg/kg/injection, schedule: Q01DX001 (ip), vehicle: saline) was 116 % of control. In addition, the T/C by setting is: (dose: 17.5 mg/kg/injection, schedule: Q04DX003 (ip), vehicle: saline) 116 % of control; (dose: 20.0 mg/kg/injection, schedule: Q01DX001 (ip), vehicle: carboxymethylcellulose (CMC)) 117 % of control; (dose: 20.0 mg/kg/injection, schedule: Q01DX001 (ip), vehicle: other) 122 % of control; (dose: 20.0 mg/kg/injection, schedule: Q01DX009 (ip), vehicle: Klucel (hydroxypropylcellulose) (HPC)) 117 % of control; (dose: 20.0 mg/kg/injection, schedule: Q01DX009 (ip), vehicle: acetone) 110 % of control; (dose: 20.0 mg/kg/injection, schedule: Q04DX003 (ip), vehicle: Klucel (hydroxypropylcellulose) (HPC)) 119 % of control. Moreover, the T/C is, setting by setting: (dose: 20.0 mg/kg/injection, schedule: Q04DX003 (ip), vehicle: other) 118 % of control; (dose: 25.0 mg/kg/injection, schedule: Q01DX001 (ip), vehicle: other) 119 % of control; (dose: 25.0 mg/kg/injection, schedule: Q01DX001 (ip), vehicle: saline) 115 % of control; (dose: 25.0 mg/kg/injection, schedule: Q01DX009 (ip), vehicle: Klucel (hydroxypropylcellulose) (HPC)) 89 % of control; (dose: 26.4 mg/kg/injection, schedule: Q04DX003 (ip), vehicle: saline) 124 % of control; (dose: 35.0 mg/kg/injection, schedule: Q01DX001 (ip), vehicle: Klucel (hydroxypropylcellulose) (HPC)) 115 % of control. In addition, the T/C (dose: 40.0 mg/kg/injection, schedule: Q01DX001 (ip), vehicle: carboxymethylcellulose (CMC)) is 117 % of control; the T/C (dose: 40.0 mg/kg/injection, schedule: Q01DX009 (ip), vehicle: Klucel (hydroxypropylcellulose) (HPC)) was 87 % of control; the T/C (dose: 40.0 mg/kg/injection, schedule: Q01DX009 (ip), vehicle: other) was 88 % of control; the T/C (dose: 40.0 mg/kg/injection, schedule: Q04DX003 (ip), vehicle: other) was 115 % of control and 123 % of control; the T/C (dose: 40.0 mg/kg/injection, schedule: Q04DX003 (ip), vehicle: saline) is 119 % of control; the T/C (dose: 50.0 mg/kg/injection, schedule: Q01DX001 (ip), vehicle: Klucel (hydroxypropylcellulose) (HPC)) was 123 % of control. Also, the T/C (dose: 50.0 mg/kg/injection, schedule: Q01DX001 (ip), vehicle: other) was 156 % of control; the T/C (dose: 75.0 mg/kg/injection, schedule: Q01DX001 (ip), vehicle: Klucel (hydroxypropylcellulose) (HPC)) was 112 % of control; the T/C (dose: 75.0 mg/kg/injection, schedule: Q01DX001 (ip), vehicle: other) was 110 % of control; the T/C (dose: 80.0 mg/kg/injection, schedule: Q01DX001 (ip), vehicle: carboxymethylcellulose (CMC)) is 112 % of control; the T/C (dose: 80.0 mg/kg/injection, schedule: Q01DX001 (ip), vehicle: other) is 114 % of control; the T/C (dose: 80.0 mg/kg/injection, schedule: Q04DX003 (ip), vehicle: other) is 87 % of control and 91 % of control.
Turning to `COc1ccc(C(C#N)C(O)(c2ccccc2)c2ccccc2)cc1` (stereo unspecified), the T/C reads like this: (dose: 50.0 mg/kg/injection, schedule: Q01DX001 (ip), vehicle: saline) 104 % of control; (dose: 100.0 mg/kg/injection, schedule: Q01DX001 (ip), vehicle: saline) 107 % of control; (dose: 200.0 mg/kg/injection, schedule: Q01DX001 (ip), vehicle: saline) 98 % of control; (dose: 400.0 mg/kg/injection, schedule: Q01DX001 (ip), vehicle: saline) 93 % of control.
As to `COc1cccc2c1CCC/C2=N\N(C)C`, the T/C was 107 % of control (dose: 100.0 mg/kg/injection, schedule: Q04DX003 (sc), vehicle: olive oil, sesame oil, peanut oil); 105 % of control (dose: 200.0 mg/kg/injection, schedule: Q04DX003 (sc), vehicle: olive oil, sesame oil, peanut oil); 109 % of control (dose: 400.0 mg/kg/injection, schedule: Q04DX003 (sc), vehicle: olive oil, sesame oil, peanut oil).
`CCOC(=O)Nc1cccc(Cl)c1Cl`: the T/C (dose: 100.0 mg/kg/injection, schedule: Q04DX003 (ip), vehicle: saline with Tween-80) was 101 % of control; the T/C (dose: 200.0 mg/kg/injection, schedule: Q04DX003 (ip), vehicle: saline with Tween-80) is 98 % of control; the T/C (dose: 400.0 mg/kg/injection, schedule: Q04DX003 (ip), vehicle: saline with Tween-80) was 93 % of control.
As to `CCOC(=O)C(=O)O`, the T/C by setting is: (dose: 25.0 mg/kg/injection, schedule: Q01DX009 (ip), vehicle: saline) 96 % of control; (dose: 50.0 mg/kg/injection, schedule: Q01DX009 (ip), vehicle: saline) 103 % of control; (dose: 100.0 mg/kg/injection, schedule: Q01DX009 (ip), vehicle: saline) 96 % of control; (dose: 100.0 mg/kg/injection, schedule: Q04DX002 (ip), vehicle: saline) 106 % of control; (dose: 200.0 mg/kg/injection, schedule: Q04DX002 (ip), vehicle: saline) 109 % of control; (dose: 400.0 mg/kg/injection, schedule: Q04DX002 (ip), vehicle: saline) 97 % of control.
Turning to `O=c1ccc2c(ccc3ncccc32)o1`, the T/C (dose: 50.0 mg/kg/injection, schedule: Q01DX009 (ip), vehicle: carboxymethylcellulose (CMC)) was 87 % of control; the T/C (dose: 50.0 mg/kg/injection, schedule: Q04DX003 (ip), vehicle: carboxymethylcellulose (CMC)) was 117 % of control; the T/C (dose: 100.0 mg/kg/injection, schedule: Q01DX009 (ip), vehicle: carboxymethylcellulose (CMC)) is 98 % of control; the T/C (dose: 100.0 mg/kg/injection, schedule: Q04DX003 (ip), vehicle: carboxymethylcellulose (CMC)) is 111 % of control; the T/C (dose: 200.0 mg/kg/injection, schedule: Q04DX003 (ip), vehicle: carboxymethylcellulose (CMC)) was 93 % of control.
Regarding `CCN(CC)CCCC(C)Nc1cc(C)nc2ccc(N(C)C)cc12` (stereo unspecified), the T/C is, setting by setting: (dose: 12.5 mg/kg/injection, schedule: Q01DX009 (ip), vehicle: saline with Tween-80) 104 % of control; (dose: 25.0 mg/kg/injection, schedule: Q01DX009 (ip), vehicle: saline with Tween-80) 111 % of control; (dose: 50.0 mg/kg/injection, schedule: Q01DX009 (ip), vehicle: saline with Tween-80) 106 % of control.
